# Experimental data published in patent publication US10941158B2, “Pyrazole ACC inhibitors and uses thereof” (Gilead Apollo, LLC, priority 2015, dated 2021).
# Legend:
# [1] = tested on: ACC1; settings: ACC1 isolated from rat, mouse, monkey and human; cited from earlier work
# [2] = tested on: ACC2; settings: ACC2 isolated from rat, mouse, monkey and human; cited from earlier work
# [3] = target: fungal (fACC2) ACC2 (UniProt Q00955); settings: read-out: fACC2 IC50; fungal ACC2, ADP-Glo
# [4] = target: human (hACC2) ACC2 (Homo sapiens, UniProt O00763); assay: In vitro Acetyl-CoA Carboxylase (ACC) inhibition assay (ADP-Glo), hACC2; assay type: biochemical
# Sequence of human (hACC2) ACC2 (O00763 whole entry): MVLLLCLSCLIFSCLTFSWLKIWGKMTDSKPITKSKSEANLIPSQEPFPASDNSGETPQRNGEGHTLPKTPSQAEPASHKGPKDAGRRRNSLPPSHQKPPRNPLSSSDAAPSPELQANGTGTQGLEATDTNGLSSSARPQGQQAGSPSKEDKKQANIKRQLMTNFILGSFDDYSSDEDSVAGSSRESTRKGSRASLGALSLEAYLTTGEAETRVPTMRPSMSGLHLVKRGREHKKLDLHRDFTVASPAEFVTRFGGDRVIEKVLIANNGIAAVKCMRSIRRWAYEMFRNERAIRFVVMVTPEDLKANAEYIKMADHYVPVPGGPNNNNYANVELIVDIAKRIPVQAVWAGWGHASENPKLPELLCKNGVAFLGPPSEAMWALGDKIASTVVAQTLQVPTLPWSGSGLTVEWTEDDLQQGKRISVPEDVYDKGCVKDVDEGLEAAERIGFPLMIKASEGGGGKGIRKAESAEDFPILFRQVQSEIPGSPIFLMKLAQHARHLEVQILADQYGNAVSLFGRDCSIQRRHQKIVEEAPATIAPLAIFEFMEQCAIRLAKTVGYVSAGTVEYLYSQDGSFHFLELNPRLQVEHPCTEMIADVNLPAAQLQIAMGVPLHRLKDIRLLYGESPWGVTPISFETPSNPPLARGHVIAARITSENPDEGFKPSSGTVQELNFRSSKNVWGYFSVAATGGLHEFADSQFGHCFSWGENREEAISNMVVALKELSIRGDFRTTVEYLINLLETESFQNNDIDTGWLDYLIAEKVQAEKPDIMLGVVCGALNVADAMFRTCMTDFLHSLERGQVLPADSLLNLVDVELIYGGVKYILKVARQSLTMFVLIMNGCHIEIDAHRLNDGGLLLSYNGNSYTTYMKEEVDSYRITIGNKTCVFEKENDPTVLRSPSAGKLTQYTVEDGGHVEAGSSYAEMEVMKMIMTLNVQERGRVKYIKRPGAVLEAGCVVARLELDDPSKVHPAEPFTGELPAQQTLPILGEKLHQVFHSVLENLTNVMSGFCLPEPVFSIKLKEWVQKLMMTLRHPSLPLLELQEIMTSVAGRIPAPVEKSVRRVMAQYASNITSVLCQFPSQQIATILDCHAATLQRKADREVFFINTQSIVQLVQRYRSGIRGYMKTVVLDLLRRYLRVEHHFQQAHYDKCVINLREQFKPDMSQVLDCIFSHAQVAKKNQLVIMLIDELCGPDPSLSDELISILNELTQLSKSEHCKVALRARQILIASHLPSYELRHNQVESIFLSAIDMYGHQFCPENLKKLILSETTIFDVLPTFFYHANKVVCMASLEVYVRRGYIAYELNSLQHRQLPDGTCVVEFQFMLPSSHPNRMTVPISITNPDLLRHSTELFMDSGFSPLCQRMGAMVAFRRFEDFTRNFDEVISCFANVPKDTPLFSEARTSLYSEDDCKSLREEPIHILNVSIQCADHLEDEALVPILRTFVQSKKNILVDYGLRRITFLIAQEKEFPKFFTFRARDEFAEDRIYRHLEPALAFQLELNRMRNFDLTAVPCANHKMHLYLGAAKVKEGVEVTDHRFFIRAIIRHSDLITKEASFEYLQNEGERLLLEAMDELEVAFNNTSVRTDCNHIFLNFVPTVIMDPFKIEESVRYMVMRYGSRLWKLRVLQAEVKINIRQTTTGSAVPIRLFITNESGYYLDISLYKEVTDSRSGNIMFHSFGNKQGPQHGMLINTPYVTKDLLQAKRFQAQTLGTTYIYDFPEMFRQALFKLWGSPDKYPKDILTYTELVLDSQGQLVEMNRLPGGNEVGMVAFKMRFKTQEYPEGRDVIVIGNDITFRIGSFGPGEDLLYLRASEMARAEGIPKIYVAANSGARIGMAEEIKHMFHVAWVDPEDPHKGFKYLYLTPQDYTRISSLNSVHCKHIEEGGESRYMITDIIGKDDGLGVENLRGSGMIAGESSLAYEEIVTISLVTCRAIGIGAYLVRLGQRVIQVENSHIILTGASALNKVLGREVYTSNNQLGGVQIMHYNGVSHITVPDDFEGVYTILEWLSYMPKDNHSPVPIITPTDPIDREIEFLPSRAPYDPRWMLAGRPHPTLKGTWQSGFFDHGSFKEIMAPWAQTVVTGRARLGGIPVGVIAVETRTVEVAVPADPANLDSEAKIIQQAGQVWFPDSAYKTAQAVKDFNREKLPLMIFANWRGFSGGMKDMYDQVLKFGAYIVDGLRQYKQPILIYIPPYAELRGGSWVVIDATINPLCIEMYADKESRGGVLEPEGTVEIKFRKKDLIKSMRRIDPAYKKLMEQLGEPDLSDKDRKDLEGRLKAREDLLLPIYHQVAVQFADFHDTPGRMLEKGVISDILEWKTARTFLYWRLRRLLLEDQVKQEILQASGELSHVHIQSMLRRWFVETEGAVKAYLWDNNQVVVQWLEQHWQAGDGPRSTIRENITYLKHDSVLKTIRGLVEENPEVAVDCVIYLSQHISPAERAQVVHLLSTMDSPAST
# Description: The detailed procedure is as follows. […] 10 μL ADP glo reagent was added. […] 20 μL kinase detection reagent was added.
# “NA” stands for “not assayed.”
# [5] = tested on: C. albicans ATCC 90028; assay: Anti-Fungal (Candida) Activity Assay, broth microtiter MIC; assay type: cell-based; settings: ATCC90028, 3 replicates, MIC recorded at 48 h, read-out: MIC C. albicans ATCC 90028
# Outline: (§1)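 Following CLSI M27-A3 broth microdilution, direct colony suspensions in RPMI 1640+MOPS were challenged with compounds. MICs were read visually against the growth control after 48 h.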
# [6] = tested on: C. krusei ATCC 6258; assay: as above; assay type: cell-based; settings: Pichia kudriavzevii, ATCC6258; 3 replicates, MIC recorded at 48 h; read-out: MIC C. krusei ATCC 6258
# Outline: as §1
# [7] = tested on: C. parapsilosis ATCC 22019; assay: as above; assay type: cell-based; settings: Lodderomyces parapsilosis, ATCC22019; 3 replicates, MIC recorded at 48 h; read-out: MIC C. parapsilosis ATCC 22019
# Outline: as §1
# [8] = tested on: Botrtyis cinerea (Bc); assay: Growth inhibition assay of fungal pathogens; assay type: cell-based; settings: 48 h, Table 4b, read-out: Concentration at 90% Inhibition Bc
# Outline: (§2)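 Compounds in DMSO tested at final 50, 10, 2 ppm or 2, 0.4, 0.08 ppm. Spores in 17% V8 medium, or 1.5 mm mycelial plugs in ¼ PDB for R. solani, incubated with compound. OD600 and visual ratings at 48 h versus 2% DMSO control gave percent growth inhibition.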
# [9] = tested on: Rhizoctonia solani (Rs); assay: Growth inhibition assay of fungal pathogens; assay type: cell-based; settings: 48 h, Table 4b, read-out: Concentration at 90% Inhibition Rs
# Outline: as §2
# [10] = tested on: Diplodia maydis (Dm); assay: Growth inhibition assay of fungal pathogens; assay type: cell-based; settings: Stenocarpella maydis, 48 h, Table 4b, read-out: Concentration at 90% Inhibition Dm
# Outline: as §2
# [11] = tested on: Phytophthora capsici (Pc); assay: Growth inhibition assay of fungal pathogens; assay type: cell-based; settings: Phytophthora capsici; Table 4b, 48 hours; read-out: Concentration at 90% Inhibition Pc
# Outline: (§3)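 Liquid-culture assay in which test compounds are applied at three final concentrations (50, 10, 2 ppm or 2, 0.4, 0.08 ppm). Inoculum levels follow 48 h growth curves for each fungus. Growth is monitored by OD600 and by eye, and the 48 h values give % inhibition against DMSO.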
# [12] = tested on: Septoria tritici (St); assay: Growth inhibition assay of fungal pathogens; assay type: cell-based; settings: Zymoseptoria tritici; Table 4b, 48 hours; read-out: Concentration at 90% Inhibition St
# Outline: as §3
# [13] = tested on: Fusarium virguliforme (Fv); assay: Growth inhibition assay of fungal pathogens; assay type: cell-based; settings: 48 h, Table 4b, 48 hours, read-out: Concentration at 90% Inhibition Fv
# Outline: as §3
# [14] = tested on: Fusarium moniliforme (Fm); assay: Growth inhibition assay of fungal pathogens; assay type: cell-based; settings: Fusarium verticillioides, 48 h, Table 4b, 48 hours; read-out: Concentration at 90% Inhibition Fm
# Outline: as §2
# [15] = tested on: Collectotrichum graminicola (Cg); assay: Growth inhibition assay of fungal pathogens; assay type: cell-based; settings: 48 h, Table 4b, read-out: Concentration at 90% Inhibition Cg
# Outline: as §3
# Sequence of fungal (fACC2) ACC2 (Q00955 whole entry): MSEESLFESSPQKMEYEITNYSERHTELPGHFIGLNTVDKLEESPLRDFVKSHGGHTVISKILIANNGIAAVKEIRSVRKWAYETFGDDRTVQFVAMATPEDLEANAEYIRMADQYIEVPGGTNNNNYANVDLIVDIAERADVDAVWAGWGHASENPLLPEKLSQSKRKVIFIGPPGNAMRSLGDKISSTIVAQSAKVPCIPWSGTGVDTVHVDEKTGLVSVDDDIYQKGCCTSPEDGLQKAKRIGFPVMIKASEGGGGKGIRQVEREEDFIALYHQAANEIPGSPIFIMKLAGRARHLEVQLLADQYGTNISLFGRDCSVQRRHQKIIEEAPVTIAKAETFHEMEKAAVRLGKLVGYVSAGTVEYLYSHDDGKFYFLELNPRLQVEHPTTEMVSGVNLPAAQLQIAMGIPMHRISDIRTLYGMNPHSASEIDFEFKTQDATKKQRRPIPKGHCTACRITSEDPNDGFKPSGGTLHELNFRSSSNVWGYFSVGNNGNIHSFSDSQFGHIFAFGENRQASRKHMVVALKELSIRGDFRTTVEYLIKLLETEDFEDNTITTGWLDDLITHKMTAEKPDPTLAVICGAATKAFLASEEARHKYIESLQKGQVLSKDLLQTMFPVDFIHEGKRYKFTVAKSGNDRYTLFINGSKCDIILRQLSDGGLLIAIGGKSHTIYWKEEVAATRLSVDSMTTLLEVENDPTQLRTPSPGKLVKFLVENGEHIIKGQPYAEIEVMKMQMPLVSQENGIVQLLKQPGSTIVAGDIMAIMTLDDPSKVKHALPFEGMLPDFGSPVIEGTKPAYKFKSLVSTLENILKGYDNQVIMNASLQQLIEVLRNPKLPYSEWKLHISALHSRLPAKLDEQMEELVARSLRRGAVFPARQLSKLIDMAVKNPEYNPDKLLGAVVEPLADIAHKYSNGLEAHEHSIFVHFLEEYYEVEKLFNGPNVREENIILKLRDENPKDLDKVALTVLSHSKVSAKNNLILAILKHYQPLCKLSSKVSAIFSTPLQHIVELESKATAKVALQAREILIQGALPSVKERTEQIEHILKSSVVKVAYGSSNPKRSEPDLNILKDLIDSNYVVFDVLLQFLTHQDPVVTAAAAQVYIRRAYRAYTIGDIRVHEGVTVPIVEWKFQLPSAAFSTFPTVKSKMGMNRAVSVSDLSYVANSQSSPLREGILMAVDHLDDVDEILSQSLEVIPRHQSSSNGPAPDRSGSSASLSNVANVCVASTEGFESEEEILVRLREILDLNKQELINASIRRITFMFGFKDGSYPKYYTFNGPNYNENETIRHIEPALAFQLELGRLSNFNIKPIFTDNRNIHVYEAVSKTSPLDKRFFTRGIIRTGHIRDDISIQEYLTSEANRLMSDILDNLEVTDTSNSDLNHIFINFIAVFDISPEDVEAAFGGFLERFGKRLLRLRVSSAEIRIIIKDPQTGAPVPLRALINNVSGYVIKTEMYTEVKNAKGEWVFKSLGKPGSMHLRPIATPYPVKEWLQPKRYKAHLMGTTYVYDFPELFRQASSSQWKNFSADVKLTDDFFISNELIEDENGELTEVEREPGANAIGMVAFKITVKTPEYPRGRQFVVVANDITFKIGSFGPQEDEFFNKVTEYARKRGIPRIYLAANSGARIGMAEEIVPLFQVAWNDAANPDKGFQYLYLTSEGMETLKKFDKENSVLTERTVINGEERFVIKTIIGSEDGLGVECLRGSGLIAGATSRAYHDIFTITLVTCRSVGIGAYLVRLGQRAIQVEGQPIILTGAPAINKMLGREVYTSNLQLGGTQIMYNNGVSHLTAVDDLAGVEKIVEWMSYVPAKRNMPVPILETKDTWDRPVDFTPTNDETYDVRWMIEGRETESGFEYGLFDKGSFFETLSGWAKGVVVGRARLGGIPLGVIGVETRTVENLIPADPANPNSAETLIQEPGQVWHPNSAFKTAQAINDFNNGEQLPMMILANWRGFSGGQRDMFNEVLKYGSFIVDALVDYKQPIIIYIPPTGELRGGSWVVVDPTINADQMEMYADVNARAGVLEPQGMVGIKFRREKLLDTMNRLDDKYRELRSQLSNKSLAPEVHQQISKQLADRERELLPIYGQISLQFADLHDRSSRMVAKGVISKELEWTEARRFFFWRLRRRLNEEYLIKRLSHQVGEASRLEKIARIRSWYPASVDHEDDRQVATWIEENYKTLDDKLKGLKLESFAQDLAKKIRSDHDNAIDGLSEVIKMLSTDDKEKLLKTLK
Structure (SMILES),IC50 [1] [nM],IC50 [2] [nM],IC50 [3] [nM],IC50 [4] [nM],MIC [5] [µg/mL],MIC [6] [µg/mL],MIC [7] [µg/mL],IC90 [8] [µg/mL],IC90 [9] [µg/mL],IC90 [10] [µg/mL],IC90 [11] [µg/mL],IC90 [12] [µg/mL],IC90 [13] [µg/mL],IC90 [14] [µg/mL],IC90 [15] [µg/mL]
O=C(c1c2ccccc2cc2ccccc12)N1CCC(N2CCC[C@@H](C(=O)N3CCOCC3)C2)CC1 [CP-640186],~60,~60,–,–,–,–,–,–,–,–,–,–,–,–,–
"COc1ccc(F)cc1[C@H](Cn1c(=O)n(C(C)(C)C(N)=O)c(=O)c2c(C)c(-n3cccn3)sc21)OCCC#N [Compound I-77, (R)-2-(1-(2-(2-cyanoethoxy)-2-(5-fluoro-2-methoxyphenyl)ethyl)-5-methyl-2,4-dioxo-6-(1H-pyrazol-1-yl)-1,4-dihydrothieno[2,3-d]pyrimidin-3(2H)-yl)-2-methylpropanamide]",–,–,0.6 to 3,> 40,> 4.1,> 4.1,> 4.1,> 50,> 50,> 50,> 50,> 50,10,2,> 50
"COc1ccc(F)cc1[C@H](Cn1c(=O)n(C(C)(C)C(=O)N2CCCC2)c(=O)c2c(C)c(-n3cccn3)sc21)OCCC#N [Compound I-81, (R)-3-(1-(5-fluoro-2-methoxyphenyl)-2-(5-methyl-3-(2-methyl-1-oxo-1-(pyrrolidin-1-yl)propan-2-yl)-2,4-dioxo-6-(1H-pyrazol-1-yl)-3,4-dihydrothieno[2,3-d]pyrimidin-(2H)-yl)ethoxy)propanenitrile]",–,–,0.6 to 3,3 to 10,> 4.1,> 4.1,> 4.1,0.4,0.08,2,> 50,> 50,0.4,0.08,2
COc1ccc(F)cc1[C@H](Cn1c(=O)n(C(C)(C)C(=O)O)c(=O)c2c(C)c(-n3cccn3)sc21)OCCC#N [Compound I-82],–,–,0.6 to 3,10 to 40,> 4.1,> 4.1,> 4.1,10,10,> 50,> 50,> 50,10,2,> 50
COc1ccc(F)cc1[C@@H](O)Cn1c(=O)n(C(C)(C)C(=O)O)c(=O)c2c(C)c(-n3cccn3)sc21 [Compound I-85],–,–,0.6 to 3,10 to 40,2.1 to 4,0.25 to 1,0.25 to 1,> 50,10,> 50,> 50,> 50,> 50,10,> 50
